Measured values as given in article PMC7496275, “Pentathiepins: A Novel Class of Glutathione Peroxidase 1 Inhibitors that Induce Oxidative Stress, Loss of Mitochondrial Membrane Potential and Apoptosis in Human Cancer Cells” (Chemmedchem, 2020).

Legend:
human GPx = assay: GPx activity assay with human cancer cell lysates (SISO); type: biochemical; conditions: inhibitor at its IC50 for bovine GPx, 0.5 mM GSH
Method: To investigate whether the pentathiepins have an inhibitory effect on human GPx, cell lysates of the human cervix cancer cell line SISO, which expresses high levels of GPx1 (see below), were incubated with either 4 or MSA in concentrations of the IC50 value for the inhibitory effect on bovine GPx1.
To measure the inhibition of human GPx activity, the enzyme assay was adapted to use human cancer cell lysates in place of the bovine enzyme. A quantity of 100 μg cellular protein (determined according to the Bradford method) per well was used. Due to the large consumption of cell lysates, just the inhibitory effect on GPx at one concentration of pentathiepin was determined in primary screening. The concentration of GSH was raised to a concentration of 0.5 mM to increase the velocity of the reaction, all other conditions were unchanged. The rates of NADPH oxidation were normalized to the solvent control. […] We used 100 μg protein of lysates and added GSH up to final concentrations between 0.375–3 mM. The rates of the GPx activity were calculated by nonlinear regression and the fitted with the GraphPad Prism 6.0 software: “Enzyme kinetics – Substrate vs. Velocity (Michaelis‐Menten)”.

HL-60 cells [1] = assay: Cell morphology after incubation; type: cell-based, human; conditions: 25 μM, 6 h
Gumbus cells [2] = assay: Cell morphology after incubation; type: cell-based, human; conditions: 25 μM, 6 h
HL-60 cells [3] = assay: MTT cell viability assay; type: cell-based; conditions: Homo sapiens, 48 h, read-out: IC50 for viability reduction
Method: We determined IC50 values for the viability reduction in a low micro molar range (Figure 6B).
MTT cell viability assay: For the detection of the inhibition of the viability of cells by the pentathiepins, the MTT‐viability assay was used.37 Briefly, 10 000 and 20 000 cells for the suspension cell lines HL‐60 and Gumbus, respectively, were seeded out in 50 μL medium per well and immediately exposed to the compounds. For the adherent cell lines SISO and HAP‐1, 3000 and 5000 cells, respectively, were seeded out in 96‐well plates and allowed to attach for 24 h. Cells were exposed to nine serial dilutions of compound, added to the medium from 1000‐fold concentrated stock solution in DMF. For the controls, cells were exposed to 0.1 % DMF alone. After 48 h incubation, 20 μL of the MTT stock solution (2.5 mg/mL in PBS) were added to each well to give a final concentration of 1.0 mM. The formazan crystals that formed after 4 h at 37 °C were dissolved by sonification after adding 100 μL of 0.04 M HCl in isopropanol for the suspension cell lines, or with 50 μL DMSO after aspiration of the medium for the adherent cell lines. Optical density was measured with a SpectraMax Plus 383 microtiter plate read at λ=570 nm (Molecular Devices, USA). […]

HL-60 cells [4] = assay: Western blot analysis of PARP cleavage; type: cell-based, human; conditions: multiple IC50 concentrations, 6 h
Method: (§1) Another method for detecting caspase dependent apoptosis is to measure the cleavage of the enzyme poly‐(ADP‐ribose)‐polymerase (PARP) by western blotting. After an apoptotic stimulus, caspases, e. g. caspase‐3 and caspase‐7, cleave PARP, resulting in a loss of its function to mediate DNA‐repair processes. Cells were incubated with multiple IC50 concentrations of 4 for 6 and 24 h. […] Thus, pentathiepin 4 appears to induce the caspase dependent induction of apoptosis.
(§2) Western blot analysis of PARP: For western blot analysis the Biorad system with “Mini‐Protean® TGX Stain‐Fee™ Gels” and “Trans‐Blot® Turbo™ Transfer Pack Mini” PVDF‐membranes were used (Biorad, Germany). Protein lysates for analysis were prepared by seeding out 10^6 cells into T25 flasks and incubated with 4 in multiple concentrations of the viability IC50 for 6 and 24 h. […] Lysates were centrifuged at 18 000 g for 10 min at 4 °C and protein content was determined by the Bradford method against bovine serum albumin (BSA) as standard. […] Protein bands were detected with Clarity™ Western ECL Substrate (Biorad) and recorded by an Advanced Fluorescence Imager (INTAS, Germany).

Gumbus cells [5] = assay: Western blot analysis of PARP cleavage; type: cell-based, human; conditions: multiple IC50 concentrations, 6 h
Method: as §1, §2

HL-60 cells [6] = assay: Apoptosis staining with Annexin-V/PI (flow cytometry); type: cell-based, human; conditions: multiples of viability IC50, 24 h
Method: (§3) To determine whether the loss in viability by 4 is caused by apoptosis, a flow cytometric analysis with Annexin‐V−FITC and PI‐stained cells was used. Early apoptotic cells undergo a translocation of phosphatidyl serine from the inner to the outer cell membrane monitored by Annexin‐V−FITC. Late apoptotic or necrotic cells also show a loss of cell membrane integrity verifiable by PI. Cells were exposed to 4 in multiple concentrations of the viability inhibition IC50 for 6 and 24 h.
(§4) Apoptosis staining with Annexin‐V/PI: For the apoptosis measurement, the translocation of phosphatidyl serine from the inner to the outer membrane by Annexin‐V and PI double staining was used.41 The protocol of the manufacturer (Miltenyi Biotec, Germany) of the “Annexin‐V‐FITC Apoptosis Detection Kit” was followed. In brief, 500,000 cells were seeded into 6‐well plates and exposed to 4 at multiple concentrations of the viability IC50 for 6 and 24 h. Afterwards, the cells were collected in reaction tubes, washed with the binding buffer belonging to the Annexin‐V‐Kit and stained with Annexin‐V‐FITC for 10 min. After repeated washing steps, the PI solution was added to the cells and followed by the flow cytometry investigation analyses at λ ex/em=488/525±50 nm for FITC and λ ex/em=488/655–730 nm for PI with a MACSQuant Analyzer 10 (Miltenyi Biotec).

Gumbus cells [7] = assay: as above; type: cell-based, human
Method: as §3, §4

CCOc1c2c(c3cnc4cc(C)c(C)cc4n13)SSSSS2 [Compound 4]
inhibition of GPx activity (human GPx): about 20%
change in morphology (HL-60 cells [1]): membrane blebbing
change in morphology (Gumbus cells [2]): membrane blebbing
IC50 (HL-60 cells [3]): 6.9 µM
PARP cleavage (HL-60 cells [4]): cleavage of PARP was detectable
PARP cleavage (Gumbus cells [5]): cleavage of PARP was detectable
apoptotic population (HL-60 cells [6]): significant increase of an apoptotic population
apoptotic population (Gumbus cells [7]; fourfold IC50 concentration, 6 h): nearly every cell was apoptotic
apoptotic population (Gumbus cells [7]; multiples of viability IC50, 6 h): significant increase of an apoptotic population
